Measured values taken from US9468669B2, “Methods to treat dysregulated blood glucose disorders” (REGENTS OF THE UNIVERSITY OF MINNESOTA, priority 2013, dated 2016).

Experiments:
[1] = system: human islets; assay: Human islet viability (acridine orange / propidium iodide staining); format: cell-based; details: for islet viability: 100 uM
Procedure: (§1) Living islets were isolated from the pancreas of a consenting organ donor via enzymatic digestion and isopycnic density gradient purification as previously described (Balamurugan, A N., et al., (2014) The Islets of Langerhans, 2nd Edition, 1-25). This isolation was performed as a standard procedure by an experienced team at the Schulze Diabetes Institute of the University of Minnesota under GMP conditions. A portion of the total number of isolated islets were granted for these experiments after quality control testing and quantification. Islets were maintained in culture in supplemented Prodo media with a 5.5 mM glucose concentration in a T-flask at 37° C., 5% CO2. Half-volume media changes were performed every 3′^d day.
After conditional incubations (described below), islets were placed in standard media for 2-8 hrs before viability assessment. The viability of islets was assessed by double staining an aliquot of ˜25 islets with acridine orange (stains living cells) and propidium iodide (stains necrotic or apoptotic cells) (Bank, H. L., (1988) In Vitro Cell Dev Biol 24, 266-73). Each islet in the sample was evaluated under a fluorescent microscope and assigned a value for the % of live cells present and those numbers averaged for that sample. 3× samples per condition were assayed each day for 3 consecutive days and on one day in a follow-up experiment 1 week later. Prior to staining, aliquots were incubated for 60 minutes (FIG. 12, n=2 days) or 90 minutes (FIG. 13, n=2 days) in each solution type used in the GSIR incubations in addition to 100 uM concentrations of D-serine, NMDA or D-serine+NMDA alone (i.e. in 0 glucose). […] On the 3rd day and in a subsequent follow-up experiment, islets were incubated for 90 minutes in the same solutions. In this case, viability was decreased only under those conditions with both the maximum glucose concentration (28 mM) and the addition of NMDA and/or D-serine with the most dramatic loss of viable islet cells (down to 81.1±1.1%) observed in the 28 mM glucose+100 uM NMDA+100 uM D-serine condition (FIG. 13).

[2] = system: human islets; assay: Glucose stimulated insulin release (GSIR); format: cell-based; details: 100 uM, glucose series
Procedure: as §1, with “Half-volume media changes were performed every 3′^d day.” left out
After washing to remove culture media, approximate aliquots of 30 islet equivalents (IEQ, islet numbers normalized to an average size of 150 microns) were added to cell strainers immersed in 1.0 mL of 0-glucose solution. […] All well contents, both time 0 and post-stimulation samples, were stored at −80° C. until they could be assessed for insulin content via sandwich ELISA from a standard commercial mouse insulin ELISA kit. Insulin content, post-stimulation concentration minus the time 0 concentration, was normalized to the actual IEQ of each well, which was determined by Pico-green DNA assessment (Papas, K. K., et al., (2007), Am J Transplant 7, 707-13) of cell strainer contents recovered at the end of the final incubation. […]

[3] = Core body temperature by rectal probe during chronic D-serine drinking; format: in vivo, mice; details: throughout the chronic D-serine drinking experiment
Procedure: (§2) Eight adult male mice of the C57 strain were tested in a chronic administration model. Mice were housed 2 per cage, with each cage outfitted with 2 special drinking tubes (50 mL conical+stopper with sipper tube) to minimize the impact of any problems with a single tube. Two cages of mice drank tap water and two cages of mice drank a D-serine solution (12.6 mg/ml in tap water), with solutions replaced every other day. Every other day, the food and drinking bottles were weighed to determine cage-wide consumptive behaviors and the mice were individually weighed. At specified intervals, mice were also tested for core body temperature by rectal probe and for 4-hours fasted blood glucose. All mice started with a week of water drinking. […] After one week, two cages (4 mice) were switched to D-serine solution. […] After this measure, all mice were again switched back to water. […] Both acute weight loss and increased drinking are prominent symptoms of the onset of diabetes.
The hypothalamus is known to regulate metabolism through its influence on circadian rhythm, hunger, thirst, body temperature and glucose utilization among others. […] Core body temperature, determined by rectal thermometer, was stable throughout the chronic D-serine drinking experiment (FIG. 8A) and between wildtype and DAO mutant mice (FIG. 8B).

[4] = system: human islets; assay: Sustained high concentration D-serine on human islet survival (1 week culture); format: cell-based; details: 100 uM NMDA and 500 uM D-serine
Procedure: as §1
After conditional incubations (described below), islets were placed in standard media for 2-8 hrs before viability assessment. The viability of islets was assessed by double staining an aliquot of ˜25 islets with acridine orange (stains living cells) and propidium iodide (stains necrotic or apoptotic cells) (Bank, H. L., (1988) In Vitro Cell Dev Biol 24, 266-73). Each islet in the sample was evaluated under a fluorescent microscope and assigned a value for the % of live cells present and those numbers averaged for that sample. 3× samples per condition were assayed each day for 3 consecutive days and on one day in a follow-up experiment 1 week later. […]

[5] = system: blood glucose; assay: Acute D-serine injection, fasted blood glucose by glucometer; format: in vivo, mice of the ddY strain; details: 2.7 g/kg i.p., 6 h fasted
Procedure: Mice were fasted for 4-6 hours. The tails were wiped with ethanol and allowed to dry. For a first time test, the tip of the tail was removed with a scissors. For subsequent tests, a needle was used to puncture the tail vein. The first drop of blood was wiped away and then the second drop was placed on a glucometer test strip. A second test was administered immediately and most scores were an average of the two readings. If there was more than a 100 unit discrepancy between the two readings, a third reading was taken and the reported value was an average of the three.
Four adult male mice of the ddY strain were fasted for 6 hours before testing. A blood glucose reading from each mouse was determined at the start (time 0). The mice were weighed and the average weight was used with an injection volume of 0.3 mL to calculate the concentration of D-serine to dissolve into saline. The dose, 2.7 g/kg, was picked based on previously published behavior studies in which the intraperitoneal dose was the most reliable in inducing a mouse behavior response during pre-pulse startle inhibition (Kanahara, N., et al., (2008), Psychopharmacology, 198, 363-374) and acute ethanol sedation (Lockridge, A., et al., (2012), Alcohol, 46:389-400). After time 0 testing, each mouse received either D-serine or saline (alternating by cage) at 5 minute intervals. Blood glucose readings were taken at 15, 30, 60 and 120 minutes after each mouse's initial injection. The data presented is the average blood glucose (mg/dL), determined by glucometer as previously described (FIG. 1). Each data point is the average of the two mice with the same treatment condition, while the standard error bars indicate the degree of individual variability between subjects. The saline injected control mice (black) maintained a steady glucose level (70-80% of baseline) throughout the testing period.

[6] = Plasma D-serine after acute i.p. administration (capillary electrophoresis); format: in vivo, mice; details: 2.7 g/kg i.p., 35 and 55 minutes after injection; ethanol 3 g/kg i.p. 15 min after D-serine
Procedure: The data from FIG. 3 serves as an example of a concentration reference value subject to the time frame and administration technique of the acute hypoglycemia experiments described in FIG. 1. A 20 uL blood sample was collected from the facial vein of mice prior to any treatment (time 0) and 20 and 40 minute intervals after an i.p. injection of ethanol (3 g/kg). A pre-treatment injection of saline (n=9) or D-serine (2.7 g/kg, i.p., n=9) was administered 15 minutes before ethanol such that the reported values also correspond to time 35 and 55 minutes after the pre-injection. These blood samples were assayed for D-serine using capillary electrophoresis, as described in the publication (Lockridge, 2012). Basal levels of plasma D-serine were ˜20 uM with post-injection values rising into the […].

[7] = system: blood glucose; assay: Chronic D-serine drinking, fasted blood glucose, body weight and consumption; format: in vivo, mice of the C57 strain
Procedure: as §2, with “Mice were fasted for 4-6 hours. The tails were wiped with ethanol and allowed to dry. For a first time test, the tip of the tail was removed with a scissors. For subsequent tests, a needle was used to puncture the tail vein. The first drop of blood was wiped away and then the second drop was placed on a glucometer test strip. A second test was administered immediately and most scores were an average of the two readings. If there was more than a 100 unit discrepancy between the two readings, a third reading was taken and the reported value was an average of the three. Eight” for “Eight”

[8] = Plasma D-serine during chronic, sustained drinking (capillary electrophoresis); format: in vivo, mice; details: 12.6 mg/mL drinking solution
Excerpt: The data from FIG. 4 were generated from an unpublished study of the impacts of D-serine on ethanol drinking. […] Blood was collected from the facial vein and assayed via capillary electrophoresis as described above after mice (n=2-4 per condition as shown in the x-axis) had been presented with a choice of water vs. D-serine (or ethanol) drinking solution for 2 weeks and then 2 weeks of exclusively drinking treated solution according to their indicated treatment category.

[9] = 12.6 mg/ml in drinking water, first week of treatment

Row | core body temperature [3] | plasma D-serine, post-injection [6] [mM] | plasma level relative to human patients undergoing D-serine oral therapy ([8]; versus clinical trials (Emilov 2013)) | concentration at 4 weeks ([8]; mouse, plasma, oral, 2 weeks choice then 2 weeks exclusive drinking, read-out: basal D-serine plasma level) [µM] | Structure (SMILES) | islet viability ([1]; 60 minutes incubation, all GSIR solution types and 0 glucose) [%] | islet viability (viable islet cells) ([1]; 90 minutes incubation, 28 mM glucose, 100 uM supplement) | effect on insulin secretion, supplement alone [2] | average viability, % viable cells per islet [4] [%] | islets recovered, average pool IEQ ([4]; Pico-green DNA assay) [IEQ] | islet viability ([1]; human, 60 min) [%] | blood sugar ([5]; 15 and 30 minutes after injection) | blood sugar, % of baseline ([5]; 60 minutes after injection) | blood sugar, % of baseline ([5]; 120 minutes after injection) | solution drinking ([7]; 12.6 mg/ml in drinking water) | blood sugar ([7]; 12.6 mg/ml in drinking water, 16 days of drinking, 4-hours fasted) [mg/dL] | blood sugar ([7]; 12.6 mg/ml in drinking water, after 7 days of drinking, 4-hours fasted) [mg/dL] | body weight [7, 9] | eating [7, 9] | blood glucose ([7]; 12.6 mg/ml in drinking water, two days after the switch, 4-hours fasted) | blood glucose after switch back to water ([7]; after a week of water drinking following 16 days of D-serine)
1 | – | – | – | – | CN[C@H](CC(=O)O)C(=O)O [NMDA, N-methyl-D-aspartate] | ~100 | decreased | no effect on 2 out of 3 days tested | – | – | – | – | – | – | – | – | – | – | – | – | –
2 | stable | ~12 | 2-3 times higher | 400 to 600 | N[C@H](CO)C(=O)O [D-serine] | – | – | no effect | 84±2.4 | 1137±172 | ~100 | stable | 52 % of baseline | 36 % of baseline | increased | 170 ± 9 | 149 ± 12 | weight loss | reduced eating | still at baseline levels | recovered back to baseline glucose levels
